What all share (assay): bio-layer interferometry, 1:1 local fit
(In BLI a coated tip is dipped into the sample, and binding shifts an interference pattern.)

For assay [1], the system named is Sequence 4 (6 to 75) (DNA, aptamer) CACAGAGGTCAGATGACTTCAGTGAGTTGTCCCACGGTCGGCGAGTCGGTGGTAGCCTATGCGTGCTACC
The settings on record: 100 mM NaCl, 5 mM KCl, 2 mM MgCl2, 1 mM CaCl2; 20 mM Tris-HCl, 0.02 Tween 20, pH 7.6; R2 0.945.

In assay [2] the test system is Sequence 9 (1 to 50) (DNA, aptamer) AGCAGCACAGAGGTCAGATGACTTCAGTGAGTTGTCCCACGGTCGGCGAG
The settings on record: 100 mM NaCl, 5 mM KCl, 2 mM MgCl2, 1 mM CaCl2; 20 mM Tris-HCl, 0.02 Tween 20, pH 7.6; R2 0.914.

In assay [3] the test system is Sequence 3 (1 to 75) (DNA, aptamer) AGCAGCACAGAGGTCAGATGACTTCAGTGAGTTGTCCCACGGTCGGCGAGTCGGTGGTAGCCTATGCGTGCTACC
Particulars: 100 mM NaCl, 5 mM KCl, 2 mM MgCl2, 1 mM CaCl2; 20 mM Tris-HCl, 0.02 Tween 20, pH 7.6; R2 0.946.

For assay [4], the system named is Sequence 6 (1 to 60) (DNA, aptamer) AGCAGCACAGAGGTCAGATGACTTCAGTGAGTTGTCCCACGGTCGGCGAGTCGGTGGTAG
Particulars: 100 mM NaCl, 5 mM KCl, 2 mM MgCl2, 1 mM CaCl2; 20 mM Tris-HCl, 0.02 Tween 20, pH 7.6; R2 0.905.

Assay [5] has as its system Sequence 5 (21 to 80) (DNA, aptamer) ACTTCAGTGAGTTGTCCCACGGTCGGCGAGTCGGTGGTAGCCTATGCGTGCTACCGTGAA
Particulars: 100 mM NaCl, 5 mM KCl, 2 mM MgCl2, 1 mM CaCl2; 20 mM Tris-HCl, 0.02 Tween 20, pH 7.6; R2 0.924.

Assay [6] concerns Sequence 10 (31 to 50) (DNA, aptamer) GTTGTCCCACGGTCGGCGAG
The settings on record: 100 mM NaCl, 5 mM KCl, 2 mM MgCl2, 1 mM CaCl2; 20 mM Tris-HCl, 0.02 Tween 20, pH 7.6; R2 0.699 (poor fit).

In assay [7] the test system is Sequence 7 (21 to 60) (DNA, aptamer) ACTTCAGTGAGTTGTCCCACGGTCGGCGAGTCGGTGGTAG
The settings on record: 100 mM NaCl, 5 mM KCl, 2 mM MgCl2, 1 mM CaCl2; 20 mM Tris-HCl, 0.02 Tween 20, pH 7.6; R2 0.882.

Assay [8] concerns Sequence 2 (6 to 80) (DNA, aptamer) CACAGAGGTCAGATGACTTCAGTGAGTTGTCCCACGGTCGGCGAGTCGGTGGTAGCCTATGCGTGCTACCGTGAA
Particulars: 100 mM NaCl, 5 mM KCl, 2 mM MgCl2, 1 mM CaCl2; 20 mM Tris-HCl, 0.02 Tween 20, pH 7.6; R2 0.973.

Assay [9] relates to Sequence 8 (31 to 80) (DNA, aptamer) GTTGTCCCACGGTCGGCGAGTCGGTGGTAGCCTATGCGTGCTACCGTGAA
Particulars: 100 mM NaCl, 5 mM KCl, 2 mM MgCl2, 1 mM CaCl2; 20 mM Tris-HCl, 0.02 Tween 20, pH 7.6; R2 0.853.

For assay [10], the system named is Sequence 1 (original aptamer, 1 to 80) (DNA, aptamer) AGCAGCACAGAGGTCAGATGACTTCAGTGAGTTGTCCCACGGTCGGCGAGTCGGTGGTAGCCTATGCGTGCTACCGTGAA
The settings on record: 100 mM NaCl, 5 mM KCl, 2 mM MgCl2, 1 mM CaCl2; 20 mM Tris-HCl, 0.02 Tween 20, pH 7.6; R2 0.993.

For assay [11], the system named is Sequence 11 (41 to 80) (DNA, aptamer) GGTCGGCGAGTCGGTGGTAGCCTATGCGTGCTACCGTGAA
The settings on record: 100 mM NaCl, 5 mM KCl, 2 mM MgCl2, 1 mM CaCl2; 20 mM Tris-HCl, 0.02 Tween 20, pH 7.6; R2 0.757.

SMILES strings stand for the structures.

Broadly, the Kd is the concentration at which binding is half-saturated.

As for `O=C(N[C@H](CO)[C@H](O)c1ccc([N+](=O)[O-])cc1)C(Cl)Cl`, the equilibrium dissociation constant (Kd) in [1] was 661 nM; in assay [2], 92 nM; in assay [3], 645 nM; in assay [4], 4014 nM; in assay [5], 1712 nM; in assay [6], 3109 nM. The Kd is 370 nM in [7]; 877 nM in assay [8]; 153 nM in assay [9]; 704 nM in assay [10]; 426 nM in assay [11].

The record behind these values is publication PMC10296281 (2023).
